Laboratory results: patent US8901114B2, “Oxathiazine derivatives substituted with carbocycles or heterocycles, method for producing same, drugs containing said compounds, and use thereof” (Sanofi, priority 2011, dated 2014)

Biological target: human 11β-HSD1 microsome fraction (Homo sapiens, UniProt P28845)
Experiment: Enzymatic 11beta-HSD1 test (SPA-based detection)
Assay type: biochemical
Settings: human 11β-HSD1 microsomes, [1,2-3H]-cortisone, NADPH, 37° C., 1 hour; read-out: IC50 (nM), Biological activity in nanomolar
Experimental: Enzymatic 11beta-HSD1 test:
First of all, 20 μl of the human 11β-HSD1 microsome fraction (0.2 μg of protein), prepared in 50 mM HEPES, 0.1% BSA (w/v), were applied to a plate with 384 wells. The test compounds (0.09 μl) were applied to the assay plate in 100% DMSO. The reaction was started by addition of 20 μl of [1,2-^3H]-cortisone (0.1 μCi/[…]) in assay buffer comprising 25 mM HEPES, 100 mM KCl, 5 mM NaCl, 2 mM MgCl2 and 0.25 mM NADPH. The plate was agitated at 37° C. for 1 hour. At the same time, a stop solution comprising 20 mg/ml SPA-PVT beads, 1.6 mg/ml monoclonal cortisol antibody and 0.01 mM SSR110887 (inhibitor from the Biovitrium patent) in 50 mM HEPES, 1 M NaCl and 1 M KCl was stirred at room temperature. To stop the reaction, 25 μl of the stop solution were added to each well. The plate was agitated gently at room temperature for 1 further hour and then centrifuged at 500 gav for […], in order that the SPA beads could settle out. […] The comparative compound was glycyrrhetinic acid.
Protein and radioactive substrate were dispensed with a Biomek FX unit (Beckman Coulter) for handling liquids. The test compounds were added with a Cybi-Well equipped with a 90 nl pin tool (CyBio).
Lit.: Solly S, Mundt S S, Zokian H J, Juy-Fang Ding G, Hermanowski-Vosatka A, Strulovici B and Zheng W. High-throughput screening of 11β-Hydroxysteroid dehydrogenase type 1 in scintillation proximity format.

human 11β-HSD1 microsome fraction, sequence (P28845 whole entry): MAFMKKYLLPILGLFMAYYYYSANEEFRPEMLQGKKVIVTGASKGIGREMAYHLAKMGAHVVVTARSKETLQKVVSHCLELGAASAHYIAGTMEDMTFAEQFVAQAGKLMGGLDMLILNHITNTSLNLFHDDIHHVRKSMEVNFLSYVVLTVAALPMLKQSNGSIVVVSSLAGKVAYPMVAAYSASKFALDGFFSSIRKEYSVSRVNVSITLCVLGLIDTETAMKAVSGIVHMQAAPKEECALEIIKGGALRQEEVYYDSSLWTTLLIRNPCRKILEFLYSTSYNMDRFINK

| IC50 [nM] | Structure (SMILES) |
| --- | --- |
| 16 | C[C@@H]1[C@@H](NC2=NS(=O)(=O)C3CCCCC3O2)C[C@H]2C[C@@H]1C2(C)C (stereo partly drawn) [Example 56, (1,1-Dioxo-4a,5,6,7,8,8a-hexahydro-1H-1lambda6-benzo[1,4,3]oxathiazin-3-yl)-((1S,2S,3S,5R)-2,6,6-trimethyl-bicyclo[3.1.1]hept-3-yl)-amine] |
| 658 | O=S1(=O)N=C(N[C@@H]2CCCC[C@H]2CO)O[C@H]2CCCC[C@H]21 [Example 59, [(1R,2R)-2-((4aS,8aR)-1,1-Dioxo-4a,5,6,7,8,8a-hexahydro-1H-1lambda6-benzo[1,4,3]oxathiazin-3-ylamino)-cyclohexyl]-methanol] |
| 43 | O=S1(=O)N=C(N[C@@H]2C[C@H]3CC[C@@H]2C3)OC2CCCCC21 (stereo partly drawn) [Example 62, (1R,2R,4S)-Bicyclo[2.2.1]hept-2-yl-((5S,6R)-1,1-dioxo-4a,5,6,7,8,8a-hexahydro-1H-1lambda6-benzo[1,4,3]oxathiazin-3-yl)-amine] |
| 38 | CC12CCC(NC3=NS(=O)(=O)C4CCCC4O3)(CC1)CC2 (stereo not shown) [Example 64, (1,1-Dioxo-1,4a,5,6,7,7a-hexahydro-1lambda6-cyclopenta[1,4,3]oxathiazin-3-yl)-(4-methyl-bicyclo[2.2.2]oct-1-yl)-amine] |
| 308 | O=S1(=O)N=C(NN2CC3CCCC3C2)OC2CCCCC21 (stereo not shown) [Example 65, (1,1-Dioxo-4a,5,6,7,8,8a-hexahydro-1H-1lambda6-benzo[1,4,3]oxathiazin-3-yl)-(hexahydro-cyclopenta[c]pyrrol-2-yl)-amine] |
| 148 | O=S1(=O)N=C(NN2CCCCCC2)OC2CCCCC21 (stereo not shown) [Example 66, Azepan-1-yl-(1,1-dioxo-4a,5,6,7,8,8a-hexahydro-1H-1lambda6-benzo[1,4,3]oxathiazin-3-yl)-amine] |
| 74 | O=S1(=O)N=C(NC23CCC(CC2)CC3)OC2CCCC21 (stereo not shown) [Example 72, Bicyclo[2.2.2]oct-1-yl-(1,1-dioxo-1,4a,5,6,7,7a-hexahydro-1lambda6-cyclopenta[1,4,3]oxathiazin-3-yl)-amine] |
| 355 | O=S1(=O)N=C(N[C@H]2CC[C@H](O)CC2)OC2CCCCC21 (stereo partly shown) [Example 81, 4-(1,1-Dioxo-4a,5,6,7,8,8a-hexahydro-1H-1lambda6-benzo[1,4,3]oxathiazin-3-ylamino)-cyclohexanol] |
| 49 | CC12CCCCC1S(=O)(=O)N=C(NC1CCCCC1)O2 (stereo not shown) [Example 89, Cyclohexyl-(4a-methyl-1,1-dioxo-4a,5,6,7,8,8a-hexahydro-1H-1lambda6-benzo[1,4,3]oxathiazin-3-yl)-amine] |

The next lines start with the compound.

| Structure (SMILES) | IC50 [nM] |
| --- | --- |
| CC1(C)[C@@H]2CC[C@@]1(C)[C@H](NC1=NS(=O)(=O)C3CCCCC3O1)C2 (single isomer, unassigned) [Example 9] | 5 |
| CC1(C)[C@@H]2CC[C@@]1(C)[C@H](NC1=NS(=O)(=O)C3CCCCC3O1)C2 (single isomer, unassigned) [Example 14] | 236 |
| CC12CCC(NC3=NS(=O)(=O)[C@H]4CCCC[C@H]4O3)(CC1)CC2 [Example 5, ((4aR,8aS)-1,1-Dioxo-4a,5,6,7,8,8a-hexahydro-1H-1lambda6-benzo[1,4,3]oxathiazin-3-yl)-(4-methyl-bicyclo[2.2.2]oct-1-yl)-amine] | 8 |
| CC12CCC(NC3=NS(=O)(=O)[C@@H]4CCCC[C@@H]4O3)(CC1)CC2 [Example 13, ((4aS,8aR)-1,1-Dioxo-4a,5,6,7,8,8a-hexahydro-1H-1lambda6-benzo[1,4,3]oxathiazin-3-yl)-(4-methyl-bicyclo[2.2.2]oct-1-yl)-amine] | 5 |
| CC1CC(NC2=NS(=O)(=O)C3CCCCC3O2)CC(C)(C)C1 (stereo not shown) [Example 23, (1,1-Dioxo-4a,5,6,7,8,8a-hexahydro-1H-1lambda6-benzo[1,4,3]oxathiazin-3-yl)-(3,3,5-trimethyl-cyclohexyl)-amine] | 20 |
| CC(C)C(NC1=NS(=O)(=O)C2CCCCC2O1)c1cccs1 (stereo not shown) [Example 25, (1,1-Dioxo-4a,5,6,7,8,8a-hexahydro-1H-1lambda6-benzo[1,4,3]oxathiazin-3-yl)-(2-methyl-1-thiophen-2-yl-propyl)-amine] | 121 |
| C[C@@H](NC1=NS(=O)(=O)C2CCCCC2O1)C1CCCCC1 (stereo partly drawn) [Example 29, ((R)-1-Cyclohexyl-ethyl)-(1,1-dioxo-4a,5,6,7,8,8a-hexahydro-1H-1lambda6-benzo[1,4,3]oxathiazin-3-yl)-amine] | 275 |
| CC1(C)[C@@H]2CC[C@@]1(C)[C@@H](NC1=NS(=O)(=O)C3CCCCC3O1)C2 (stereo partly drawn) [Example 36, (1,1-Dioxo-4a,5,6,7,8,8a-hexahydro-1H-1lambda6-benzo[1,4,3]oxathiazin-3-yl)-((1R,2S,4R)-1,7,7-trimethyl-bicyclo[2.2.1]hept-2-yl)-amine] | 59 |
| CC1(C)[C@@H]2CC[C@@]1(C)[C@H](O)[C@H]2NC1=NS(=O)(=O)C2CCCCC2O1 (stereo partly drawn) [Example 38, (1R,2S,3S,4S)-3-(1,1-Dioxo-4a,5,6,7,8,8a-hexahydro-1H-1lambda6-benzo[1,4,3]oxathiazin-3-ylamino)-1,7,7-trimethyl-bicyclo[2.2.1]heptan-2-ol] | 570 |
| O=S1(=O)N=C(NC(C2CC2)C2CC2)OC2CCCCC21 (stereo not shown) [Example 39, Dicyclopropylmethyl-(1,1-dioxo-4a,5,6,7,8,8a-hexahydro-1H-1lambda6-benzo[1,4,3]oxathiazin-3-yl)-amine] | 440 |
| CC1(C)C2CCC1C(NC1=NS(=O)(=O)C3CCCCC3O1)C2O (stereo not shown) [Example 41, 3-(1,1-Dioxo-4a,5,6,7,8,8a-hexahydro-1H-1lambda6-benzo[1,4,3]oxathiazin-3-ylamino)-7,7-dimethyl-bicyclo[2.2.1]heptan-2-ol] | 497 |
| O=S1(=O)N=C(NCC2CCCCO2)OC2CCCCC21 (stereo not shown) [Example 47, (1,1-Dioxo-4a,5,6,7,8,8a-hexahydro-1H-1lambda6-benzo[1,4,3]oxathiazin-3-yl)-(tetrahydro-pyran-2-ylmethyl)-amine] | 165 |
| O=S1(=O)N=C(NC2CCSc3ccccc32)OC2CCCCC21 (stereo not shown) [Example 48, (1,1-Dioxo-4a,5,6,7,8,8a-hexahydro-1H-1lambda6-benzo[1,4,3]oxathiazin-3-yl)-thiochroman-4-yl-amine] | 93 |
| CC(C)[C@]12CC(NC3=NS(=O)(=O)C4CCCCC4O3)[C@H](C)[C@H]1C2 (stereo partly drawn) [Example 53, (1,1-Dioxo-4a,5,6,7,8,8a-hexahydro-1H-1lambda6-benzo[1,4,3]oxathiazin-3-yl)-((1S,4R,5R)-1-isopropyl-4-methyl-bicyclo[3.1.0]hex-3-yl)-amine] | 54 |
| O=S1(=O)N=C(NC2CC[C@H]3CC[C@@H]2C3)OC2CCCCC21 (stereo partly drawn) [Example 54, (1R,5R)-Bicyclo[3.2.1]oct-2-yl-(1,1-dioxo-4a,5,6,7,8,8a-hexahydro-1H-1lambda6-benzo[1,4,3]oxathiazin-3-yl)-amine] | 29 |
| CC(C)CC(CC(C)C)NC1=NS(=O)(=O)C2CCCCC2O1 (stereo not shown) [Example 55, (1,1-Dioxo-4a,5,6,7,8,8a-hexahydro-1H-1lambda6-benzo[1,4,3]oxathiazin-3-yl)-(1-isobutyl-3-methyl-butyl)-amine] | 670 |
